The test system of one data set is HCT 116. The data set can be described thus: MTT cell viability assay, HCT 116. The class given is cell-based. The conditions noted are these: HCT 116 (Human colon), 48 hours, average of three experiments, read-out: IC50 values (growth inhibition constants). How it is done: (§1) The compound DAT1 was tested for its cytotoxicity on human cervical, uterus and colon cancer cell lines and mouse fibrocercoma cells. Cell lines were obtained from ATCC, USA and NCCS, Pune, India. MTT assay, which correlates a fomazan dye formation wife the number of viable cells, was used for this purpose.
(§2) • 3. Cell Viability Assay: MTT assay was used to determine fee number of viable cells upon drug addition. Cells were seeded in microtitre plates (generally 5×10^3 cells per well) and were incubated with different concentrations of the cytotoxic agents for 48 h. Subsequently, 100 μl of MTT solution (0.6 mg/ml) was added per well and incubated at 37° C. for additional 2 h. The amount of formazan salt was quantified in quadruplicates by recording fee absorbance at 570 ran using a Biorad Plate reader. The growth inhibition constants (IC50) were calculated from the semi logarithmic dose response plots using fee nonlinear regression program Origin. All the experiments were done for at least three times. • 4. Microtubule and Tubulin Preparation: Microtubular protein was prepared from goat brains by two cycles of temperature dependent assembly-disassembly process in PEM buffer (100 mM PIPES, pH 6.9, 1 mM MgCl2 & 1 mM EGTA ) with 1 mM GTP at 37° C. For fee polymerization experiments, it was followed by one more cycle in PEM. Tubulin was purified from 2X MTP using glutamate buffer for assembly. • 5. Polymerization assay: MTP polymerization, in fee presence or absence of DAT1, was measured by the time course of fee turbidity at 37° at 345 nm. A Shimadzu UV-1601 double beam spectrophotometer fitted with a temperature-controlled circulating water bath was used for this purpose. • 6. […] Tubulin binding: Emission spectra of DAT1 in presence of tubulin were recorded from 400 nm to 600 nm using an excitation wavelength of 374 nm. Excitation and emission bandpasses are 2.5 nm each and the fluorescence values recorded are uncorrected. All fluorescence measurements were performed in a Perkin-Elmer model LS50B Luminescence spectrometer.
(In general: Tetrazolium assays rely on reduction of a dye to a coloured formazan, in cell work by metabolically active cells.)

The next data set has as its system HeLa. In words: MTT cell viability assay, HeLa. In kind it is cell-based. The conditions noted are these: HeLa (Human cervix), 48 hours, average of three experiments, read-out: IC50 values (growth inhibition constants). As to the method:
as §1, §2

The test system of the next data set is L-929. The data set can be described thus: MTT cell viability assay, L-929. In kind it is cell-based. The conditions noted are these: L929, L-929 (Mouse connective tissue), 48 hours, average of three experiments, read-out: IC50 values (growth inhibition constants). How it is done:
as §1
(§3) • 3. Cell Viability Assay: MTT assay was used to determine fee number of viable cells upon drug addition. Cells were seeded in microtitre plates (generally 5×10^3 cells per well) and were incubated with different concentrations of the cytotoxic agents for 48 h. Subsequently, 100 μl of MTT solution (0.6 mg/ml) was added per well and incubated at 37° C. for additional 2 h. The amount of formazan salt was quantified in quadruplicates by recording fee absorbance at 570 ran using a Biorad Plate reader. The growth inhibition constants (IC50) were calculated from the semi logarithmic dose response plots using fee nonlinear regression program Origin. […] Polymerization assay: MTP polymerization, in fee presence or absence of DAT1, was measured by the time course of fee turbidity at 37° at 345 nm. […] Tubulin binding: Emission spectra of DAT1 in presence of tubulin were recorded from 400 nm to 600 nm using an excitation wavelength of 374 nm. Excitation and emission bandpasses are 2.5 nm each and the fluorescence values recorded are uncorrected. […]

A further data set has as its system CaSki. In words: MTT cell viability assay, CaSki. The conditions noted are these: Ca-Ski, CaSki (Human cervix), 48 hours, average of three experiments, read-out: IC50 values (growth inhibition constants). In kind it is cell-based. As to the method:
as §1, §3

The next data set deals with SW 620. In words: MTT cell viability assay, SW 620. The conditions noted are these: SW 620 (Human colon), 48 hours, average of three experiments, read-out: IC50 values (growth inhibition constants). In kind it is cell-based. How it is done: as §1, §2
The next data set concerns SiHa. The data set can be described thus: MTT cell viability assay, SiHa. The conditions noted are these: SiHa (Human cervix), 48 hours, average of three experiments, read-out: IC50 values (growth inhibition constants). In kind it is cell-based. How it is done: as §1, §3
Another data set has as its system MES-SA/Dx5. The data set can be described thus: MTT cell viability assay, multidrug resistant MES-SA/Dx5. The class given is cell-based, Human. The conditions noted are these: for IC50: MES-SA/Dx5 (Human uterus), multidrug resistant, 48 hours, MTT, average of three experiments, read-out: IC50 values (growth inhibition constants). How it is done:
as §1
• 3. Cell Viability Assay: MTT assay was used to determine fee number of viable cells upon drug addition. Cells were seeded in microtitre plates (generally 5×10^3 cells per well) and were incubated with different concentrations of the cytotoxic agents for 48 h. Subsequently, 100 μl of MTT solution (0.6 mg/ml) was added per well and incubated at 37° C. for additional 2 h. The amount of formazan salt was quantified in quadruplicates by recording fee absorbance at 570 ran using a Biorad Plate reader. The growth inhibition constants (IC50) were calculated from the semi logarithmic dose response plots using fee nonlinear regression program Origin. All the experiments were done for at least three times. • 4. Microtubule and Tubulin Preparation: Microtubular protein was prepared from goat brains by two cycles of temperature dependent assembly-disassembly process in PEM buffer (100 mM PIPES, pH 6.9, 1 mM MgCl2 & 1 mM EGTA ) with 1 mM GTP at 37° C. For fee polymerization experiments, it was followed by one more cycle in PEM. Tubulin was purified from 2X MTP using glutamate buffer for assembly. • 5. Polymerization assay: MTP polymerization, in fee presence or absence of DAT1, was measured by the time course of fee turbidity at 37° at 345 nm. A Shimadzu UV-1601 double beam spectrophotometer fitted with a temperature-controlled circulating water bath was used for this purpose. • 6. Immunofluorescence assay: HeLa cells were incubated with the drug for 24 h at 37° C., washed with PBS and fixed with 4% paraformaldehyde at 4° C. Subsequently, they were washed and permeabilized with 0.2% Triton X-100 in PBS for 20 min at 37° C. […] Tubulin binding: Emission spectra of DAT1 in presence of tubulin were recorded from 400 nm to 600 nm using an excitation wavelength of 374 nm. Excitation and emission bandpasses are 2.5 nm each and the fluorescence values recorded are uncorrected. All fluorescence measurements were performed in a Perkin-Elmer model LS50B Luminescence spectrometer.

Another data set has as its system IMR 90 (lung epithelial). In words: Cell survival in normal immortalized cell line. In kind it is cell-based. The conditions noted are these: concentration much more than the IC50 values in the cancer cell lines; data not shown. From the text:
The cell survival in fee normal immortalized cell line IMR 90 (lung epithelial) was good after fee treatment of DAT1 in a concentration which was much more than the IC50 values in all fee cancer cell lines tested. In comparison, fee cell survival was less upon vinblastine treatment and similar upon paclitaxel treatment in similar concentrations (data not shown).

In data set [1] the test system is human cervical, uterus and colon cancer cell lines and mouse fibrocercoma cells. In words: MTT cytotoxicity, panel of cancer cell lines (summary). The class given is cell-based. The conditions noted are these: read-out: IC50 values, range. How it is done: as §1, §3
[2] abbreviates: multidrug resistant cell line MES-SA/DX5.

Read-outs that look alike come from different tables or passages of the source.

In general, IC50 refers to the point on the concentration scale where inhibition reaches its midpoint.

Regarding `CC(=O)O[C@H]1C(=O)[C@@]2(C)[C@H]([C@H](OC(=O)c3ccccc3)[C@]3(O)C[C@H](OC(=O)[C@H](O)[C@@H](NC(=O)c4ccccc4)c4ccccc4)C(C)=C1C3(C)C)[C@]1(OC(C)=O)CO[C@@H]1C[C@@H]2O` [Paclitaxel], the IC50 with HCT 116 came to 12 nM; in the data set on HeLa it was 34 nM; in the data set with L-929, 300 nM; in the data set with CaSki, 20 nM; in the data set on SW 620, 7 nM; in the data set with SiHa, 1100 nM. Moreover, the 50% inhibitory concentration (IC50) in the data set on MES-SA/Dx5 was 8600 nM. The “cell survival after treatment” value with IMR 90 (lung epithelial) was “similar”.

On to `CC[C@]1(O)C[C@@H]2CN(CCc3c([nH]c4ccccc34)[C@@](C(=O)OC)(c3cc4c(cc3OC)N(C)[C@H]3[C@@](O)(C(=O)OC)[C@H](OC(C)=O)[C@]5(CC)C=CCN6CC[C@]43[C@@H]65)C2)C1` [Vinblastine], for which the IC50 worked out at 5 nM in the data set with HCT 116, 1 nM in the data set with HeLa, 200 nM with SW 620 and 730 nM in the data set on MES-SA/Dx5. Moreover, the “cell survival after treatment” value with IMR 90 (lung epithelial) is listed as “less”.

Turning to `COc1ccc(Nc2nc(N)c(C(=O)c3ccccc3)s2)cc1` [DAT1, Diaminoketothiazole], the IC50 in the data set with HCT 116 is 300 nM; in the data set on HeLa it was 54 nM; in the data set on L-929 it was 1000 nM; in the data set on CaSki, 200 nM; with SW 620, 200 nM; in the data set with SiHa, 5000 nM. The IC50 in the data set on MES-SA/Dx5 was 350 nM; in data set [1] (in 2 cell lines), 1000 to 5000 nM; in data set [1] (in 5 out of the 9 cell lines tested), 50 to 300 nM. Further, the “times more active than paclitaxel” value in the data set with MES-SA/Dx5 (setting [2]) stood at 15 times. Moreover, the “times more active than vinblastine” value with MES-SA/Dx5 (setting [2]) was determined as 2 times. Further, the “cell survival after treatment” value with IMR 90 (lung epithelial) is “good”.

The values are drawn from patent US8158806B2, “DAT1” (Department of Biotechnology, priority 2004, dated 2012).
